Assay results from US20230147249A1, “METHODS OF APPLYING A FUMIGANT TO REDUCE FUSARIUM CONTAMINATION” (Taminco BV, priority 2020, published 2023).

Experiments:
Foc TR4 chlamydospores = assay: Efficacy of metam sodium on Foc TR4 chlamydospores in vitro (colony growth on PDA plates); type: cell-based, Fusarium oxysporum f. sp. cubense Tropical Race 4
Procedure: Foc TR4 chlamydospores were extracted from infested soil and incubated with a dilution series of metam sodium for 5 min and 60 min at room temperature. Thereafter, the samples were diluted 10× to get reduction of the treatment and sufficient dilution of chlamydospores to avoid lack of resolution when grown on plate. Aliquots of 100 μl were plated on PDA plates in duplicate and incubated for 3 days at 25° C. Plates were photographed and scored.

Cavendish banana plants = assay: Field trial: growth and development of banana plants after metam sodium soil injection at 30 cm and 60 cm; type: in vivo, Cavendish banana (Musa)
Procedure: The analyses described in this example were carried out in the Philippines in a field in which Musa trees (specifically bananas) were to be planted, in the spring (beginning in March). Final determinations were carried out in September of the same year.
(§1) Metam Sodium Application. Metam sodium 510 SL (equivalent to 42% w/w) was applied to soil at the following doses: 0 liters per hectare (L/ha), 750 L/ha, 1500 L/ha, 2250 L/ha, 3000 L/ha.
(§2) Prior to injection, soil was prepared using a rototiller to break the soil structure from 0 cm to 80 cm deep, allowing for the smooth and even injection application by an injection machine. The soil was then leveled and made uniform, and the metam sodium was applied at two depths: 30 cm and 60 cm, using injection methods. The temperature was at a minimum of 10 QC and soil humidity was between 50 and 60% holding capacity, allowing the applied product to transform from metam sodium (liquid) to MITC (gas).
(§3) The application was made using an injection machine wherein the machine lowered shanks and began moving forward such that the shanks lowered to a depth of 60 cm and injectors applied the metam sodium into the soil. When the injection at 60 cm was complete, the process was repeated for the entire field at 30 cm. The treated soil in the field was then sealed using a packer roller (which was part of the injection machinery, located at the back end of the machine), after each application.
Plant Selection and Transplantation. Cavendish banana plants were used for this investigation. In order to avoid plants already contaminated by other soil, all plants were produced in vitro using art-recognized methods. Plants were transplanted into the field 14 days after the final soil reading was taken (21 days after treatment).
Data Gathering. Data were gathered at monthly intervals beginning three months after banana plants were transplanted. A total of three data collection sessions were conducted. Data including the number of leaves, plant height, and girth size were collected.

[1] = tested on: F. oxysporum f. sp. cubense; assay: Panama disease analysis of soil samples after metam sodium soil injection; type: in vivo, Fusarium oxysporum f. sp. cubense Tropical Race 4; conditions: any of the treated groups (750-3000 L/ha); any day post application
Procedure: as §1, §2, §3
Soil Analysis. Soil samples were obtained at 20, 40, and 60 cm before application and every 24 hours beginning 48 hours after application, for seven days.
Plant Pathology Analysis. […]

[2] = 750 L/ha, six months after treatment
[3] = 1500 L/ha, six months after treatment
[4] = 2250 L/ha, six months after treatment
[5] = 3000 L/ha, six months after treatment

`CNC(=S)[S-].[Na+]` [metam sodium, sodium N-methyldithiocarbamate] was tested, and the “effect of prolonged incubation on number of surviving chlamydospores (growing colonies)” value (Foc TR4 chlamydospores; 100× dilution, 60 min versus 5 min) was “more effective in reducing the number of surviving chlamydospores”, the “efficacy on Foc TR4 colony growth” value (Foc TR4 chlamydospores; dilution of 10×, incubation time 5 minutes) was “effective” and the “efficacy on Foc TR4 colony growth” value (Foc TR4 chlamydospores; dilution of 100×, 5 and 60 minutes) was “less effective”. The “reduction in viability of Foc TR4 chlamydospores (colony growth)” value (Foc TR4 chlamydospores; first test, dilutions from 1000 up to 10×10^6-fold, 60 min) was “No significant reduction in viability”, the “efficacy against Foc TR4 chlamydospores” value (Foc TR4 chlamydospores; in vitro conditions, dependent on high concentrations) was “effective against Foc TR4 chlamydospores” and the “efficacy on surviving chlamydospores” value (Foc TR4 chlamydospores; second test, 10× and 100× dilutions) was “(partially) effective”. The “number of chlamydospores that survived” value (Foc TR4 chlamydospores; second test, dilutions of 1000× and more) was “did not affect the number of chlamydospores that survived”, the “effect on average girth size of banana plant” value (Cavendish banana plants; 750 L/ha) was ~1 cm and the “increase in average height of banana plant” value (Cavendish banana plants; 750 L/ha) was ~5 cm. The “effect on plants reaching bagging stage” value (Cavendish banana plants; [2]) was “did not have a meaningful effect”, the “percent of plants at either shooting or bagging stage” value (Cavendish banana plants; [2]) was 11% and the “percent of plants at shooting stage” value (Cavendish banana plants; [2]) was 9%. The “increase in average girth size of banana plant” value (Cavendish banana plants; 1500-3000 L/ha) was 4-6 cm, the “increase in average height of banana plant” value (Cavendish banana plants; 1500-3000 L/ha) was 20-23 cm and the “percent of plants at either shooting or bagging stage” value (Cavendish banana plants; [3]) was 28%. For the same compound, the “percent of plants at shooting stage” value (Cavendish banana plants; [3]) was 10%, the “percent of plants at bagging stage” value (Cavendish banana plants; 1500 to 3000 L/ha, six months after treatment) was 11-19% and the “percent of plants at either shooting or bagging stage” value (Cavendish banana plants; [4]) was 27%. For the same compound, the “percent of plants at shooting stage” value (Cavendish banana plants; [4]) was 17%, the “percent of plants at either shooting or bagging stage” value (Cavendish banana plants; [5]) was 35% and the “percent of plants at shooting stage” value (Cavendish banana plants; [5]) was 22%. The “increase of average number of leaves per banana plant” value (Cavendish banana plants; regardless of dose applied (750-3000 L/ha), versus 0 L/ha) was “roughly 1.5 fold” and the “Foc TR4 detection in soil” value [1] was “No Foc TR4 was detected”.
